The values below come from patent US9834571B2, “Compounds for inhibiting cell proliferation in EGFR-driven cancers” (ARIAD Pharmaceuticals, Inc., priority 2012, dated 2017).

The IC50 is the concentration that inhibits the measured activity by half.

The target in assay [1] is EGFR L858R/T790M (Homo sapiens, UniProt P00533, L858R/T790M). Briefly: Kinase inhibitory activity against EGFR bearing the L858R/T790M double mutation. Type of assay: biochemical. The settings on record: 10 μM ATP, read-out: IC50 for kinase inhibition, EGFR L858R T790M. Here is the method:
(§1) Kinase inhibitory activity of the compounds was measured against human EGFR (native sequence) and against EGFR bearing the L858R mution and the L858R/T790M double mutation (EGFR, L858R, and L858R/T790M, respectively in Table 1). Additional assays can be conducted with EGFR deletion mutants such as delE746-A750 with or without the additional T790M mutation. Assay conditions included 10 pt curves with 3 μM top concentration (singlicates) and 10 μM ATP.

In assay [2] the target is EGFR L858R (Homo sapiens, UniProt P00533, L858R). Briefly: Kinase inhibitory activity against EGFR bearing the L858R mutation. Type of assay: biochemical. The settings on record: 10 μM ATP, read-out: IC50 for kinase inhibition, EGFR L858R. Here is the method: as §1
EGFR L858R, sequence (P00533 25-1210 L858R): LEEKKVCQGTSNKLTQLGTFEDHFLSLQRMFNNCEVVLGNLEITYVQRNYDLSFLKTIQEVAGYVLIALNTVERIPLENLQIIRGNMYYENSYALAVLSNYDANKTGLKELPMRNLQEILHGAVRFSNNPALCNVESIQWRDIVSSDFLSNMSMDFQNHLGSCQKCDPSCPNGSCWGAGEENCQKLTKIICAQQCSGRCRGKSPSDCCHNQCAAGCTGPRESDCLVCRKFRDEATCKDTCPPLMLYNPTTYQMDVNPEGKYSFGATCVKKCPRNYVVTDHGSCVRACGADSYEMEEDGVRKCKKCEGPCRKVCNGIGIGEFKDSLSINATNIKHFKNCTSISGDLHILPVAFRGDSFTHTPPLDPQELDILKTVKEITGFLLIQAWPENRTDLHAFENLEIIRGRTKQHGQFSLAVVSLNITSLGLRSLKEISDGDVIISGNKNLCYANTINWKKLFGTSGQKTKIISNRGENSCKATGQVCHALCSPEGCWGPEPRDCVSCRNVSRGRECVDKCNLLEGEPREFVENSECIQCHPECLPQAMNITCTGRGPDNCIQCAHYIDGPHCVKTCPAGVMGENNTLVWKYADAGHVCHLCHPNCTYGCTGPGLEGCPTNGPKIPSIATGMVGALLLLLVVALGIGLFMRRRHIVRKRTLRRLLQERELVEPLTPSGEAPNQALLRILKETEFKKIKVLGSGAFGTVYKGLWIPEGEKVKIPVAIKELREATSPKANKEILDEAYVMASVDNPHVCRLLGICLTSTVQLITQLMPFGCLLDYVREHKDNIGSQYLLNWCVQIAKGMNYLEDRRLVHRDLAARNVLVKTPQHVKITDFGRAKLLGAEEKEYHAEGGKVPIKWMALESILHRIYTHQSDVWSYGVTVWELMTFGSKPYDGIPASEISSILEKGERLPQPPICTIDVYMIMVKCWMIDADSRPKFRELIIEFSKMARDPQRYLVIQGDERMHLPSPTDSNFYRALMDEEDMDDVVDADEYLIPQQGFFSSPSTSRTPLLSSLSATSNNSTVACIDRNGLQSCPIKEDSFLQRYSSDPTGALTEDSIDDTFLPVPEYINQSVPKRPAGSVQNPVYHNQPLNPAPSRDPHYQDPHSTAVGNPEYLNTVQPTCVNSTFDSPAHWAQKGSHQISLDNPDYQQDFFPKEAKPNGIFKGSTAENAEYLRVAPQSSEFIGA
Assay [3] has as its target T1, BaF3 cells expressing the target EGFR mutations (Homo sapiens, UniProt P00533, T790M/L858R, cells depend on it).
T1 construct: IC50, BAF3 EGFR L858R-T790M PURO POOL; other: BAF3 EGFR L858R-T790M PURO POOL cells, MTT; IC50, BAF3 EGFR L858R-T790M PURO POOL; other: BAF3 EGFR L858R-T790M PURO POOL cells; MTT
Nature of the assay: Antiproliferative activity (MTT) against BaF3 cells expressing the target EGFR mutations. Type of assay: cell-based. The settings on record: BAF3 EGFR L858R-T790M PURO POOL cells, read-out: IC50, BAF3 EGFR L858R-T790M PURO POOL. Here is the method: (§2) We also assessed the antiproliferative activity of compounds of Formula (I) against BaF3 cells expressing the target EGFR mutations or control (i.e., cell lines expressing wildtype EGFR). Assays were conducted using MTT.

The target of assay [4] is T2, BaF3 cells expressing the target EGFR mutations (Homo sapiens, UniProt P00533, T790M, cells depend on it, form not given).
T2 construct: IC50, BAF3 EGFR DEL T790M PURO POOL; other: BAF3 EGFR DEL T790M PURO POOL cells, MTT; other: BAF3 EGFR DEL T790M PURO POOL cells; MTT
Described as above. It counts as cell-based. The settings on record: BAF3 EGFR DEL T790M PURO POOL cells, read-out: IC50, BAF3 EGFR DEL T790M PURO POOL. How it is done:
as §2

Assay [5] addresses human EGFR (native sequence) (Homo sapiens, UniProt P00533). Briefly: Kinase inhibitory activity against human EGFR (native sequence). Type of assay: biochemical. The settings on record: 10 μM ATP, read-out: IC50 for kinase inhibition, EGFR. Here is the method:
as §1

Assay [6] concerns BaF3 cells expressing wildtype EGFR. Nature of the assay: Antiproliferative activity (MTT) against control BaF3 cells expressing wildtype EGFR. It counts as cell-based. How it is done: as §2
Setting [7] is: 10 pt curves, 3 μM top concentration.
[8] abbreviates: Mus musculus, BAF3 parental cells.
The mark [9] stands for this setting: EGFR L858R/T790M double mutation.
[10] abbreviates: Mus musculus, BAF3 PARENTAL cells (control).

Read-outs that look alike come from different tables or passages of the source.

T1 sequence (P00533 whole entry T790M/L858R): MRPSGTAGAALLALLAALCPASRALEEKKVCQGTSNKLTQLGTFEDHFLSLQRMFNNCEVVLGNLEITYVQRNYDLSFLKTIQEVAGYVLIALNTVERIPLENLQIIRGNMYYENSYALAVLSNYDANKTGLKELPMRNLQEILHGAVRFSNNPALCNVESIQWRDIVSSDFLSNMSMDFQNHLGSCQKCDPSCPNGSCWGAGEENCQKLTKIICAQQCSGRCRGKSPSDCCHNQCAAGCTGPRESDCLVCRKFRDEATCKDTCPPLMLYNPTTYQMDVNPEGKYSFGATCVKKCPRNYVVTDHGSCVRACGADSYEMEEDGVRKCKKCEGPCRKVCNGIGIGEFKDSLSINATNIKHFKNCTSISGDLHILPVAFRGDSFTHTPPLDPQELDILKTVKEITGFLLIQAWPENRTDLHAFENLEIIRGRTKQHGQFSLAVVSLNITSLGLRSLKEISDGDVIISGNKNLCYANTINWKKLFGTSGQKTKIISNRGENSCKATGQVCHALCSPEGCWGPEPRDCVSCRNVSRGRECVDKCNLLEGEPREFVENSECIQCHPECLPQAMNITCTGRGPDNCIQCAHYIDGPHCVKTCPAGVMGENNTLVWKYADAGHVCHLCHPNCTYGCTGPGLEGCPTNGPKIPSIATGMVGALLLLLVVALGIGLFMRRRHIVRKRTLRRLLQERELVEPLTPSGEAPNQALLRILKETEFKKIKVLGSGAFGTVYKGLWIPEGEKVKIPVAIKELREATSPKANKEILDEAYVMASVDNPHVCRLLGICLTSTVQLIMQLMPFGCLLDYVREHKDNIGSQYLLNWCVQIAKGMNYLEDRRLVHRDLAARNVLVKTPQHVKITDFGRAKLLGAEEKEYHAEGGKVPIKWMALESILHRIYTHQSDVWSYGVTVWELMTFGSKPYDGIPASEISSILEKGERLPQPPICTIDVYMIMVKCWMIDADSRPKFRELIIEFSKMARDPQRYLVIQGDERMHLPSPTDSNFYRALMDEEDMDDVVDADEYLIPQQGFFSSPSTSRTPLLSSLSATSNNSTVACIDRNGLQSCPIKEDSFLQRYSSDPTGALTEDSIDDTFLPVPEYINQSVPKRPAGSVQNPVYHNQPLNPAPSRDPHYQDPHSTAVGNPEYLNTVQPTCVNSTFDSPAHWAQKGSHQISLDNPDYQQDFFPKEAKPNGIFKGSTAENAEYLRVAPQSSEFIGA
EGFR L858R/T790M, sequence (P00533 25-1210 T790M/L858R): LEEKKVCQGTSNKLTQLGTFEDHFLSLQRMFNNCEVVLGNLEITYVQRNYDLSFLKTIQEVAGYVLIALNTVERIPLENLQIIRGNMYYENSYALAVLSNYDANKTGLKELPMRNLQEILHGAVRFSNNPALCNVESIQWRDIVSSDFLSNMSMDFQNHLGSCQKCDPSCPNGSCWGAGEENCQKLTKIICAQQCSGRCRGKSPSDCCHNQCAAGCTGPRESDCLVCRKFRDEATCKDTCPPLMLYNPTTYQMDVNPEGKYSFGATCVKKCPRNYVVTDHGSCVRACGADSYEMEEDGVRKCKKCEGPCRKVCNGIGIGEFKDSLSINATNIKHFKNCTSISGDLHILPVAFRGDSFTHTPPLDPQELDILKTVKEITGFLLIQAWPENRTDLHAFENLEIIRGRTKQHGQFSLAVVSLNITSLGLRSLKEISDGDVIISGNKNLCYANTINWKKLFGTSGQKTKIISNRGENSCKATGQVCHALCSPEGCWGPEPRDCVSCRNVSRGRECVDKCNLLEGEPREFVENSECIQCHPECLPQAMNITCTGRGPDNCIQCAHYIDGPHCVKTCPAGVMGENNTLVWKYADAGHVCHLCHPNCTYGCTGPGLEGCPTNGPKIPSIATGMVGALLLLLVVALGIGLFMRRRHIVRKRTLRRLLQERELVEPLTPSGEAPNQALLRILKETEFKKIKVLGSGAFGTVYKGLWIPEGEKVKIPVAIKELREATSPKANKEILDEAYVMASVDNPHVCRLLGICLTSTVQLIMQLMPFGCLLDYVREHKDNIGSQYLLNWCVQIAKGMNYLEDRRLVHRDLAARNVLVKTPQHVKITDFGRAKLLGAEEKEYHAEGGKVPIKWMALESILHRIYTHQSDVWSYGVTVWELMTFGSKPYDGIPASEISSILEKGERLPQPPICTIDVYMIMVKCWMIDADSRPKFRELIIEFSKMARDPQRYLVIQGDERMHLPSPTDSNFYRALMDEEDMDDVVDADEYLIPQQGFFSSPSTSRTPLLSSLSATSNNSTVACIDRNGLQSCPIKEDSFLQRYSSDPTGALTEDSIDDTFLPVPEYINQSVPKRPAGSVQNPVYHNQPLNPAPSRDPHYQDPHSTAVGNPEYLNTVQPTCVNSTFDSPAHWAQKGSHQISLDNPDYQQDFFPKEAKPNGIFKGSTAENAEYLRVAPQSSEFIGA
human EGFR (native sequence), sequence (P00533 25-1210): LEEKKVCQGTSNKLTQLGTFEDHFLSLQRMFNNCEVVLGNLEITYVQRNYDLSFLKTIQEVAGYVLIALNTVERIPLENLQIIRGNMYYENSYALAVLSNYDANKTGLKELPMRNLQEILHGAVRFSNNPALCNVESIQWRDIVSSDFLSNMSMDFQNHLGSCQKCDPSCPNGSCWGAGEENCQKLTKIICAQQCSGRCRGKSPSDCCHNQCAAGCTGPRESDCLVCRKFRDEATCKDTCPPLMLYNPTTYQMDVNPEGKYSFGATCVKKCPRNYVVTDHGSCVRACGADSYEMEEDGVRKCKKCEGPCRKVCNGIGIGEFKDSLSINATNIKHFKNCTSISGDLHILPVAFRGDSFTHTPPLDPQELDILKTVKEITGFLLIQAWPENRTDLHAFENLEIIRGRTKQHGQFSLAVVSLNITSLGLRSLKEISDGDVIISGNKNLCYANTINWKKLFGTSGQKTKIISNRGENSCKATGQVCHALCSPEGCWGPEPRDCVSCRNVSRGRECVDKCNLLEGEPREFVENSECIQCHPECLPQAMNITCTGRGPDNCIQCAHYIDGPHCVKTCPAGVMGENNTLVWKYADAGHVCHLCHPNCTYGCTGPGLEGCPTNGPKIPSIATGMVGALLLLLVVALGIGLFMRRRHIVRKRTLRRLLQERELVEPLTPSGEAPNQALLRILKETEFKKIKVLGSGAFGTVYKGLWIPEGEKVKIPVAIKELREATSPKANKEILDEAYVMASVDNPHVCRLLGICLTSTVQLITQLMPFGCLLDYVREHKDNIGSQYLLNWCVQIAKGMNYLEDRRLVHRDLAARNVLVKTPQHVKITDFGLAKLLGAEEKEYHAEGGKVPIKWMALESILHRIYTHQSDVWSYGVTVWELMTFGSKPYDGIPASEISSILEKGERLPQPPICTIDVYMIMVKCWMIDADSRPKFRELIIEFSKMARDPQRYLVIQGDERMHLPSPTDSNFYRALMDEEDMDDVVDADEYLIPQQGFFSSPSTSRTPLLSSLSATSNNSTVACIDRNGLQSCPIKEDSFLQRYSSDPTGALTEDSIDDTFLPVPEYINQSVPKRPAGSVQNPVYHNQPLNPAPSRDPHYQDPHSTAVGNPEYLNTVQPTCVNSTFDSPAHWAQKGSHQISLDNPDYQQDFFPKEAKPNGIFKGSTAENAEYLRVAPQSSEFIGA

With `COCC#CC(=O)Nc1cc(Nc2ncc(Cl)c(Nc3ccccc3P(C)(C)=O)n2)c(OC)cc1N1CCOCC1` [Example 105, N-(5-((5-chloro-4-((2-(dimethylphosphoryl)phenyl)amino)pyrimidin-2-yl)amino)-4-methoxy-2-morpholinophenyl)-4-methoxybut-2-ynamide], the IC50 is less than 50 nM in assay [1] (setting [7]), less than 50 nM in assay [2] (setting [7]), less than 50 nM in assay [5] (setting [7]) and not below 250 nM in assay [6] (setting [8]). The GI50 in assay [3] and in assay [4] was less than 50 nM in each case.

Turning to `C=CC(=O)Nc1cc(Nc2ncc(C3CC3)c(Nc3ccccc3P(C)(C)=O)n2)c(OC)cc1N(C)CCN(CC)CC` [Example 120, N-(5-((5-cyclopropyl-4-((2-(dimethylphosphoryl)phenyl)amino)pyrimidin-2-yl)amino)-2-((2-(diethylamino)ethyl)(methyl)amino)-4-methoxyphenyl)acrylamide], the IC50 is less than 50 nM in assay [1] (setting [7]), less than 50 nM in assay [2] (setting [7]), less than 50 nM in assay [5] (setting [7]) and not below 250 nM in assay [6] (setting [8]). The GI50 in assay [3] and in assay [4] was less than 50 nM in each case.

For the compound `C=CC(=O)Nc1cc(Nc2ncc(Cl)c(Nc3ccccc3P(C)(C)=O)n2)c(OC)cc1OCC1CCCCN1C` (stereo not shown) [Example 7, N-(5-((5-chloro-4-((2-(dimethylphosphoryl)phenyl)amino)pyrimidin-2-yl)amino)-4-methoxy-2-((1-methylpiperidin-2-yl)methoxy)phenyl)acrylamide], the IC50 is less than 50 nM in assay [1] (setting [9]), less than 50 nM in assay [2] (EGFR L858R), less than 50 nM in assay [5] (human EGFR native sequence) and not below 250 nM in assay [6] (setting [10]). In addition, the GI50 in assay [3] and in assay [4] was less than 50 nM in each case.

Consider `C=CC(=O)Nc1ccc(OC)c(Nc2cc(Nc3ncccc3P(C)(C)=O)ncn2)c1` [Example 163, N-(3-((6-((3-(dimethylphosphoryl)pyridin-2-yl)amino)pyrimidin-4-yl)amino)-4-methoxyphenyl)acrylamide], for which the IC50 in assay [1] (setting [7]) was 101 to 250 nM; in assay [2] (setting [7]) it was less than 50 nM; in assay [5] (setting [7]) it was 50 to 100 nM; in assay [6] (setting [8]), not below 250 nM. Also, the GI50 in assay [3] and in assay [4] was not below 250 nM each time.

For `C=C(CN1CCN(C)CC1)C(=O)Nc1ccc(OC)c(Nc2ncc(Cl)c(Nc3ccccc3P(C)(C)=O)n2)c1` [Example 49, N-(3-((5-chloro-4-((2-(dimethylphosphoryl)phenyl)amino)pyrimidin-2-yl)amino)-4-methoxyphenyl)-2-((4-methylpiperazin-1-yl)methyl)acrylamide], the IC50 in assay [1] (setting [9]) is less than 50 nM; in assay [2] (EGFR L858R) it was less than 50 nM; in assay [5] (human EGFR native sequence), less than 50 nM; in assay [6] (setting [10]), not below 250 nM. For the same compound, the GI50 in assay [3] and in assay [4] was less than 50 nM in each case.

On to `C=CC(=O)Nc1cc(Nc2ncc(Cl)c(Nc3ccccc3P(C)(C)=O)n2)c(Cl)cc1OC(COC)CN(C)C` (stereo not shown) [Example 146, N-(4-chloro-5-((5-chloro-4-((2-(dimethylphosphoryl)phenyl)amino)pyrimidin-2-yl)amino)-2-((1-(dimethylamino)-3-methoxypropan-2-yl)oxy)phenyl)acrylamide], for which the GI50 in assay [4] was less than 50 nM. The IC50 in assay [5] (setting [7]) was less than 50 nM; in assay [6] (BAF3 parental cells), not below 250 nM.

In the case of `C=CC(=O)N1CCc2cc(OC)c(Nc3ncc(Cl)c(Nc4ccccc4P(C)(C)=O)n3)cc21` [Example 127, 1-(6-((5-chloro-4-((2-(dimethylphosphoryl)phenyl)amino)pyrimidin-2-yl)amino)-5-methoxyindolin-1-yl)prop-2-en-1-one], the GI50 is not below 250 nM in assay [3] and 101 to 250 nM in assay [4]. For the same compound, in assay [6] (setting [8]), the half-maximal inhibitory concentration (IC50) is not below 250 nM.

Consider `C=CC(=O)Nc1cc(Nc2ncc(Cl)c(Nc3ccccc3P(C)(C)=O)n2)c(OC)cc1OCC1CCCN1C` (stereo not shown) [Example 18, N-(5-((5-chloro-4-((2-(dimethylphosphoryl)phenyl)amino)pyrimidin-2-yl)amino)-4-methoxy-2-((1-methylpyrrolidin-2-yl)methoxy)phenyl)acrylamide], for which the GI50 in assay [3] and in assay [4] was less than 50 nM in each case. Further, in assay [6] (setting [10]), the IC50 is not below 250 nM.

As for `C=CC(=O)Nc1cc(Nc2ncc(Cl)c(Nc3ccccc3P(C)(C)=O)n2)c(OC)cc1OCCN1CCN(C)CC1` [Example 2, N-(5-((5-chloro-4-((2-(dimethylphosphoryl)phenyl)amino)pyrimidin-2-yl)amino)-4-methoxy-2-(2-(4-methylpiperazin-1-yl)ethoxy)phenyl)acrylamide], the IC50 in assay [1] (setting [9]) is less than 50 nM; in assay [2] (EGFR L858R), less than 50 nM; in assay [5] (human EGFR native sequence), 101 to 250 nM; in assay [6] (setting [10]), not below 250 nM. The GI50 in assay [4] is not below 250 nM.

Regarding `C=CC(=O)Nc1cc(Nc2ncc(Cl)c(Nc3ccccc3P(C)(C)=O)n2)c(OC)cc1OC1CN(C)C1` [Example 17, N-(5-((5-chloro-4-((2-(dimethylphosphoryl)phenyl)amino)pyrimidin-2-yl)amino)-4-methoxy-2-((1-methylazetidin-3-yl)oxy)phenyl)acrylamide], the GI50 in assay [3] was in the range of 101 to 250 nM; in assay [4] it was 50 to 100 nM. Further, the IC50 in assay [6] (setting [10]) was not below 250 nM.

On to `C=CC(=O)Nc1cc(Nc2ncc(Cl)c(Nc3ccccc3P(C)(C)=O)n2)c(C)cc1OC(COC)CN(C)C` (stereo not shown) [Example 144, N-(5-((5-chloro-4-((2-(dimethylphosphoryl)phenyl)amino)pyrimidin-2-yl)amino)-2-((1-(dimethylamino)-3-methoxypropan-2-yl)oxy)-4-methylphenyl)acrylamide], for which the GI50 in assay [4] was less than 50 nM. In addition, the IC50 in assay [5] (setting [7]) is less than 50 nM; in assay [6] (BAF3 parental cells), not below 250 nM.

Consider `C=CC(=O)Nc1ccc(F)c(Nc2ncc(Cl)c(Nc3ccccc3P(C)(C)=O)n2)c1` [Example 54, N-(3-((5-chloro-4-((2-(dimethylphosphoryl)phenyl)amino)pyrimidin-2-yl)amino)-4-fluorophenyl)acrylamide], for which the GI50 in assay [3] and in assay [4] was less than 50 nM throughout. The IC50 in assay [6] (setting [10]) is not below 250 nM.

As for `C=CC(=O)Nc1cc(Cc2ncc(Cl)c(Nc3ccccc3P(C)(C)=O)n2)c(OC)cc1C#CCN1CCC(C)CC1` [Example 176, N-(5-((5-chloro-4-((2-(dimethylphosphoryl)phenyl)amino)pyrimidin-2-yl)methyl)-4-methoxy-2-(3-(4-methylpiperidin-1-yl)prop-1-yn-1-yl)phenyl)acrylamide], the IC50 in assay [1] (setting [7]) was less than 50 nM; in assay [2] (setting [7]), less than 50 nM; in assay [5] (setting [7]), less than 50 nM; in assay [6] (setting [8]), not below 250 nM.

Consider `C=CC(=O)Nc1cc(Cc2ncc(Cl)c(Nc3ccccc3P(C)(C)=O)n2)c(OC)cc1C#CCN(C)C(C)(C)C` [Example 177, N-(2-(3-(tert-butyl(methyl)amino)prop-1-yn-1-yl)-5-((5-chloro-4-((2-(dimethylphosphoryl)phenyl)amino)pyrimidin-2-yl)methyl)-4-methoxyphenyl)acrylamide], for which the IC50 in assay [1] (setting [7]) was less than 50 nM; in assay [2] (setting [7]), less than 50 nM; in assay [5] (setting [7]) it was less than 50 nM; in assay [6] (setting [8]), not below 250 nM.

Turning to `C=CC(=O)Nc1cc(Nc2ncc(Cl)c(Nc3ccccc3P(C)(C)=O)n2)c(OC)cc1OCC(CO)N(C)C` (stereo not shown) [Example 66, N-(5-((5-chloro-4-((2-(dimethylphosphoryl)phenyl)amino)pyrimidin-2-yl)amino)-2-(2-(dimethylamino)-3-hydroxypropoxy)-4-methoxyphenyl)acrylamide], the figures for the GI50 in assay [3] and in assay [4] were not below 250 nM and 101 to 250 nM, respectively. Moreover, the IC50 in assay [6] (setting [10]) is not below 250 nM.
